{"source": "patent US20220411414A1", "about": "“INHIBITORS FOR THE B-CATENIN/B-CELL LYMPHOMA 9 (BCL9) PROTEIN-PROTEIN INTERACTION” (H. LEE MOFFITT CANCER CENTER AND RESEARCH INSTITUTE, INC., priority 2018, published 2022)", "key": {"[1]": {"system": "SW480", "experiment": "MTs growth inhibition assay, SW480", "format": "cell-based", "conditions": "Homo sapiens, Wnt/β-catenin-hyperactive, 72 h, read-out: MTs IC50 ± SD SW480", "method": "MTs cancer cell growth inhibition assays were conducted for 4 and 5. Three cancer cell lines with hyperactive Wnt/β-catenin signaling, SW480, HCT116, and MDA-MB-231. MTs cell viability assay. Colorectal cancer cell lines, SW480 and HCT116, and triple-negative breast cancer cell line MDA-MB-231 were seeded in 96-well plates at 4×10^3 cells/well, maintained overnight at 37° C., and incubated in the presence of 4 and 5 at various concentrations. Cell viability was monitored after 72 h using a freshly prepared mixture of 1 part phenazine methosulfate (PMS, Sigma) solution (0.92 mg/mL) and 19 parts 3-(4,5-dimethylthiazol-2-yl)-5-(3-carboxymethoxyphenyl)-2-(4-sulfophenyl)-2H-tetrazolium (MTs, Promega) solution (2 mg/mL). Cells were incubated in 10 μL of this solution at 37° C. for 3 h, and A490 was measured. The effect of each compound is expressed as the concentration required to reduce A490 by 50% (IC50) relative to vehicle-treated cells. Experiments were performed in triplicate."}, "[2]": {"system": "protein expression of cyclin D1, c-myc, ABC, total β-catenin", "experiment": "Western blot analysis in SW480 cells", "format": "cell-based", "conditions": "SW480, 24 h, FIG. 3", "method": "Protein expression levels of cyclin D1, c-myc, the active form of β-catenin (ABC), and total β-catenin in SW480 cells were examined by Western blot analysis (FIG. 3). […] Western blotting. SW480 cells at 1×10^6 cells/[…] were treated with different concentrations of 4 for 24 h. Cells were lysed in buffer containing 50 mM Tris (pH 7.4), 150 mM NaCl, 1% Nonidet P-40, 0.5% sodium deoxycholate, 0.1% SDS, and protease inhibitors. After centrifugation at 12,000 rpm for 20 min at 4° C., the supernatant was loaded onto an 8% SDS polyacrylamide gel for electrophoretic analysis. Separated proteins were transferred onto nitrocellulose membranes for immunoblot analysis. The antibodies against total β-catenin (610153, BD Biosciences, most of which is phosphorylated β-catenin and represents the E-cadherin bound pool), the active form of β-catenin (ABC, 05-665, EMD Millipore, dephosphorylated at positions S37 and T41 of β-catenin), cyclin D1 (sc-853, Santa Cruz Biotechnology, Inc.), c-myc (D84C12, Cell Signaling), and β-tubulin (sc-55529, Santa Cruz Biotechnology, Inc) were incubated with the membranes overnight at 4° C. respectively. IRDye 680LT goat anti-mouse IgG (827-11080, LiCOR) or IRDye 800CW goat anti-rabbit IgG (827-08365, LiCOR) was used as the secondary antibody. The images were detected by the Odyssey Infrared Imaging System (LiCOR). Experiments were performed in duplicate."}}, "data": [{"compound": "Cl.Cl.O=C(Nc1ccc(O[C@@H]2CCNC2)c(-c2cccc(-c3nn[nH]n3)c2)c1)c1ccc(O[C@H]2CCNC2)c(-c2ccc(F)c(F)c2)c1", "note": "[Compound 4, 3′,4′-difluoro-6-(((S)-pyrrolidin-3-yl)oxy)-N-(6-(((R)-pyrrolidin-3-yl)oxy)-3′-(2H-tetrazol-5-yl)-[1,1′-biphenyl]-3-yl)-[1,1′-biphenyl]-3-carboxamide dihydrochloride]", "values": [{"measurement": "IC50", "setting": "[1]", "value": "41 ± 6.2", "unit": "µM"}, {"measurement": "E-cadherin-bound β-catenin (total β-catenin)", "setting": "[2]", "value": "had no effect"}, {"measurement": "activated β-catenin (ABC) in the cell nucleus", "setting": "[2]", "value": "reduced"}, {"measurement": "protein expression level of c-myc", "setting": "[2]", "value": "significantly reduced"}, {"measurement": "protein expression level of cyclin D1", "setting": "[2]", "value": "significantly reduced"}]}]}
